Experimental data reported in patent publication US6344451B1, “Pyrrolobenzodiazepine carboxyamide vasopressin agonists” (American Home Products, priority 1999, dated 2002).

Target: T1, Vasopressin V2 (Rattus norvegicus, UniProt Q00788)
T1 construct: Male or female normotensive Sprague-Dawley rats; from tissue; host or cells: whole living Sprague-Dawley rat (V2 receptors of the kidney collecting ducts)
Assay: Vasopressin V2 agonist effects of test compounds in normal conscious water-loaded rats
Format: in vivo
Details: oral dose of 10 mg/Kg, urine collected for four hours, Sprague-Dawley (CD) rats; for Changes in Urinary Osmolality: osmolality changes expressed as percent of control; for Urine Volume (% decrease): percent decrease in urine volume vs. control
From the text: Vasopressin V2 Agonist Effects of Test Compounds in Normal Conscious Water-Loaded Rats:
Male or female normotensive Sprague-Dawley rats (Charles River Laboratories, Inc., Kingston, N.Y.) of 350-500 g body weight were supplied with standard rodent diet (Purina Rodent Lab. Chow 5001) and water ad libitum. On the day of test, rats were placed individually into metabolic cages equipped with devices to separate the feces from the urine and containers for collection of urine. A test compound or a reference agent was given at an oral dose of 10 mg/Kg in a volume of 10 mL/Kg. The vehicle used was 20% dimethylsulfoxide (DMSO) in 2.5% preboiled corn starch. Thirty minutes after dosing the test compound, rats were gavaged with water at 30 mL/Kg into the stomach using a feeding needle. During the test, rats were not provided with water or food. Urine was collected for four hours after dosing of the test compound. At the end of four hours, urine volume was measured. Urinary osmolality was determined using a Fiske One-Ten Osmometer (Fiske Associates, Norwood, Mass., 02062) or an Advanced CRYOMATIC Osmometer, Model 3C2 (Advanced Instruments, Norwood, Mass.). Determinations of Na^+, K^+ and Cl^− ion were carried out using ion specific electrodes in a Beckman SYNCHRON EL-ISE Electrolyte System analyzer. The urinary osmolality should increase proportionally. In the screening test, two rats were used for each compound. If the difference in the urine volume of the two rats was greater than 50%, a third rat was used.

T1 sequence (Q00788 whole entry): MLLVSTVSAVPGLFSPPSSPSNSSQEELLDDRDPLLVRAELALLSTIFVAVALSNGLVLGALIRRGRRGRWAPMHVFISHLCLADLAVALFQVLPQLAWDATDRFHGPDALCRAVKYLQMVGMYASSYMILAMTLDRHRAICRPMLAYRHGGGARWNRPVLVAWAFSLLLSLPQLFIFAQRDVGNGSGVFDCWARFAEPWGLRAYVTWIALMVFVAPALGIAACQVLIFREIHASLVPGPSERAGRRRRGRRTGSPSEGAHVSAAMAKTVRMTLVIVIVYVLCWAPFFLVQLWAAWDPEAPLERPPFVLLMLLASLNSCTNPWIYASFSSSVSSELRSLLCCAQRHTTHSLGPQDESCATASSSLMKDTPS

SMILES | Changes in Urinary Osmolality | Urine Volume (% decrease)
Cn1ccc2cc(C(=O)N3Cc4cccn4Cc4ccccc43)ccc21 [Example 1, (5H-10,11-Dihydro-pyrrolo [2,1-c][1,4]benzodiazepin-10-yl)-(1-methyl-1H-indol-5-yl)-methanone] | 174% of control | 66 % decrease
O=C(c1ccc2c(c1)OCO2)N1Cc2cccn2Cc2ccccc21 [Example 2, Benzo[1,3]dioxol-5-yl-(5H-10,11-dihydro-pyrrolo [2,1-c][1,4]benzodiazepin-10-yl)-methanone] | 41% of control | 23 % decrease
O=C(c1ccc2c(c1)CCO2)N1Cc2cccn2Cc2ccccc21 [Example 3, (2,3-Dihvdro-benzofuran-5-yl)-(5H-10.11-dihydro-pyrrolo [2,1-c][1,4]benzodiazepin-10-yl)-methanone] | 10% of control | 32 % decrease
O=C(c1ccc2ncsc2c1)N1Cc2cccn2Cc2ccccc21 [Example 4, (Benzothiazol-6-yl)-(5H-10,11-dihydro-pyrrolo[2,1-c][1,4]benzodiazepin-10-yl)-methanone] | 3% of control | 19 % decrease
